This note sets out measurements from paper PMC4730229, “Benzobisthiazoles Represent a Novel Scaffold for Kinase Inhibitors of CLK Family Members” (Biochemistry, 2015).

Test [1] addresses T1, GST-CLK2cd (CLK2 catalytic domain) (Homo sapiens, UniProt P49760).
T1 construct: cDNA encoding the CLK2 catalytic domain (CLK2cd, amino acids 140–496); made in house; host or cells: Escherichia coli BL21(DE3)-R3-lambda-PPase
The test can be described thus: High-throughput screen, Kinase-Glo in vitro kinase assay. It counts as biochemical. Particulars: compound at 10 μM; read-out: percentage of inhibition on CLK2 (primary screen). As for the experimental part: A small molecule inhibitor library consisting of 1600 compounds was obtained from LIFE Chemicals (Kiev, Ukraine). These compounds are part of the CUTE kinase collection that was predicted by in silico profiling against a panel of targets and includes potent kinase inhibitor compounds.[16] Compounds were dissolved as 10 mM stocks in DMSO and stored at room temperature, in the presence of 5% humidity and 5% oxygen in the dark in a Roylan Storage Pod system. Compounds were dispensed into white 384-well plates using the Labcyte Echo520 instrument at a final concentration of 10 μM. Next, 5 μL of 144.92 nM purified GST-CLK2cd in kinase assay buffer A was added to the compounds, incubated for 10 min at room temperature prior to addition of 5 μL of a 2 μM ATP/10 μM S6K peptide mixture, and incubated again for 60 min at room temperature. Subsequently, 10 μL of Kinase-Glo was added to the wells, and the plates were analyzed after 10 min on the Envision II multilabel plate reader (PerkinElmer). […] The percentage of inhibition is equal to 100 – [(total ATP before assay – remaining ATP in assay with compound)/(total ATP before assay – remaining ATP in assay with DMSO) × 100].

The test system of another test is firefly luciferase. The test can be described thus: Luciferase inhibition assay (Kinase-Glo, no kinase). The conditions noted are these: compound at 10 μM. It counts as biochemical. How it is done: For analysis of luciferase inhibition, 10 μL of luciferase reagent (Kinase-Glo, Promega) was added to 10 μL of a mixture consisting of 1 μM ATP and 5 μM S6K and 10 μM compound (potential kinase inhibitor) in buffer A in the absence of kinase and incubated for 10 min at room temperature in a white well plate before the luminescence was read. The percentage of inhibition is equal to (luminescence in the assay without compound – luminescence in the assay with compound)/(luminescence in the assay without compound) × 100.

A further test addresses ERK8 (Homo sapiens, UniProt Q8TD08). The test can be described thus: Kinase profiling (radioactive filter binding). The test is classed as biochemical. The conditions noted are these: 1 uM compound. How it is done:
(§1) 3A5 and 5E4 were sent to the International Centre for Kinase Profiling at the MRC Protein Phosphorylation and Ubiquitylation Unit for profiling (as described in ref ([17])). Compounds were profiled against 140 kinases using a radioactive ([^33P]ATP) filter binding assay at a concentration of 1 μM. Results were obtained as inhibition of kinase activity and are listed in Supplementary Table 2.

In a further test the target is HIPK2 (Homo sapiens, UniProt Q9H2X6). The test can be described thus: Kinase profiling (radioactive filter binding). It counts as biochemical. Particulars: 1 uM compound. How it is done:
as §1

In a further test the target is IR (Homo sapiens, UniProt P06213). The test can be described thus: Kinase profiling (radioactive filter binding). It counts as biochemical. Particulars: 1 uM compound. As for the experimental part:
as §1

Another test concerns the target JNK1 (Homo sapiens, UniProt P45983). The test can be described thus: Kinase profiling (radioactive filter binding). It counts as biochemical. Particulars: 1 uM compound. As for the experimental part:
as §1

For a further test, the target named is MAPKAP-K2 (Homo sapiens, UniProt P49137). The test can be described thus: Kinase profiling (radioactive filter binding). It counts as biochemical. The conditions noted are these: 1 uM compound. As for the experimental part:
as §1

A further test concerns the target MKK2 (Homo sapiens, UniProt P36507). The test can be described thus: Kinase profiling (radioactive filter binding). It counts as biochemical. The conditions noted are these: 1 uM compound. As for the experimental part:
as §1

The next test has as its target PDGFRA (Homo sapiens, UniProt P16234). The test can be described thus: Kinase profiling (radioactive filter binding). The conditions noted are these: 1 uM compound. The test is classed as biochemical. As for the experimental part: as §1
For a further test, the target named is PIM3 (Homo sapiens, UniProt Q86V86). The test can be described thus: Kinase profiling (radioactive filter binding). The test is classed as biochemical. Particulars: 1 uM compound. How it is done: as §1
The target of the next test is PKD1 (Homo sapiens, UniProt Q15139). The test can be described thus: Kinase profiling (radioactive filter binding). Particulars: 1 uM compound. The test is classed as biochemical. As for the experimental part: as §1
Sequence of PKD1 (Q15139 whole entry): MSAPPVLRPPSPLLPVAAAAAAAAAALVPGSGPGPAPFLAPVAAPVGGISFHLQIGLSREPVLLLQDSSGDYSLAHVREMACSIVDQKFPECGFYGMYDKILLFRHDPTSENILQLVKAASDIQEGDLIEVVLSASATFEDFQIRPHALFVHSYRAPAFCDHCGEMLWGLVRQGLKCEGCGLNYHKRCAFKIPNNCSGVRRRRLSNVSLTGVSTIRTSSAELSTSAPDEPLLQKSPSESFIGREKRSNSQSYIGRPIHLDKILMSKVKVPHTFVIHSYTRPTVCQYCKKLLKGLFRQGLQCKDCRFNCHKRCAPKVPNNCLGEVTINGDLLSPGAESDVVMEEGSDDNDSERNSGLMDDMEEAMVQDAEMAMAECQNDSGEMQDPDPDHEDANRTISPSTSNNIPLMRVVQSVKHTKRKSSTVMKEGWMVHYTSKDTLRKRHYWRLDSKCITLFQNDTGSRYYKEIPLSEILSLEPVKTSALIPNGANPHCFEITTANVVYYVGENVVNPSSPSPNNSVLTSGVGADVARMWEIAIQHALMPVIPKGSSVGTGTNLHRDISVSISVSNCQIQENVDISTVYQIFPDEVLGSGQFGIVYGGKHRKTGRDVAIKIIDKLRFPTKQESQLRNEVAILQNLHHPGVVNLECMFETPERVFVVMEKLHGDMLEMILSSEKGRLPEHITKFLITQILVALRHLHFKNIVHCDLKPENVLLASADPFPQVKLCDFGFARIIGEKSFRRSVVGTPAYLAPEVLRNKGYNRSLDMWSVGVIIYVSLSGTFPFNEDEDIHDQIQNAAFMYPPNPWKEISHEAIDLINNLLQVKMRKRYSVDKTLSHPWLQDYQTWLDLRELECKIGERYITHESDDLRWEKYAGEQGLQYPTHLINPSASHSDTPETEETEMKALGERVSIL
The target of another test is TIE2 (Homo sapiens, UniProt Q02763). The test can be described thus: Kinase profiling (radioactive filter binding). It counts as biochemical. The conditions noted are these: 1 uM compound. How it is done:
as §1

The next test concerns the target T2, Dyrk1A (Homo sapiens, UniProt Q13627).
T2 construct: purchased Invitrogen PV3785
The test can be described thus: Kinase profiling (radioactive filter binding). It counts as biochemical. The conditions noted are these: for DYRK1A activity in kinase profiling: 1 uM compound; for inhibition at 1 µM: 1 μM compound, read-out: inhibitory activity toward DYRK1A in kinase panel.

A further test relates to AMPK (hum). The test can be described thus: Kinase profiling (radioactive filter binding). The test is classed as biochemical, human. Particulars: 1 uM compound. As for the experimental part: as §1
A further test concerns PHK. The test can be described thus: Kinase profiling (radioactive filter binding). Particulars: 1 uM compound. It counts as biochemical, human. How it is done:
as §1

Another test deals with CLK2 (Homo sapiens, UniProt P49760). The test can be described thus: Kinase inhibition assay, IC50. It counts as biochemical. Details: cDNA encoding the CLK2 catalytic domain (CLK2cd, amino acids 140–496); made in house; host or cells: Escherichia coli BL21(DE3)-R3-lambda-PPase. Particulars: relative to 3A5.
Sequence of CLK2 (P49760 140-496): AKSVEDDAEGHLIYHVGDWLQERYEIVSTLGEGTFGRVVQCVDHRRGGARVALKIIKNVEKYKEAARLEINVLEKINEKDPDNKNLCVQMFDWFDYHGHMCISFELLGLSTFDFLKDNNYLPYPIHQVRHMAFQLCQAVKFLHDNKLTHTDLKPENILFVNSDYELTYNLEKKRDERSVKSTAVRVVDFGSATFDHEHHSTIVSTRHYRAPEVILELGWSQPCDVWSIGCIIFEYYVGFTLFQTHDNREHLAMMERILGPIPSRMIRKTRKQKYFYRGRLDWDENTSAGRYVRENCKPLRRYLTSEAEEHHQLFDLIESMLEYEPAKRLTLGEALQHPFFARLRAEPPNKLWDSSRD

T1 sequence (P49760 140-496): as above
Sequence of ERK8 (Q8TD08 whole entry): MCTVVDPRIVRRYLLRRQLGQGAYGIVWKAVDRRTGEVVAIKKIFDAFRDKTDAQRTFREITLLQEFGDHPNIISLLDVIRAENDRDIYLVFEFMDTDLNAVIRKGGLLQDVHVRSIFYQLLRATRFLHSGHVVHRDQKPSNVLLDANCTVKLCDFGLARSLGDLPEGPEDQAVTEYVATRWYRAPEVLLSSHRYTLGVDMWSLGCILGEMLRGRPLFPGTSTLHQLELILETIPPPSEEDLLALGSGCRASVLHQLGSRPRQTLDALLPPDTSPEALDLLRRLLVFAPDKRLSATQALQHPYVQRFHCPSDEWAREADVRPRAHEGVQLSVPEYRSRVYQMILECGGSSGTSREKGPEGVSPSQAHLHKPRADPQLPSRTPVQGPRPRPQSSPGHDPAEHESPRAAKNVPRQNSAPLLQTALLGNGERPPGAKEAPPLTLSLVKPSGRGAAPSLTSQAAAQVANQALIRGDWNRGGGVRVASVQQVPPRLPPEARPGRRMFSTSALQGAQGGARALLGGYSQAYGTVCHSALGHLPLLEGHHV
Sequence of JNK1 (P45983 whole entry): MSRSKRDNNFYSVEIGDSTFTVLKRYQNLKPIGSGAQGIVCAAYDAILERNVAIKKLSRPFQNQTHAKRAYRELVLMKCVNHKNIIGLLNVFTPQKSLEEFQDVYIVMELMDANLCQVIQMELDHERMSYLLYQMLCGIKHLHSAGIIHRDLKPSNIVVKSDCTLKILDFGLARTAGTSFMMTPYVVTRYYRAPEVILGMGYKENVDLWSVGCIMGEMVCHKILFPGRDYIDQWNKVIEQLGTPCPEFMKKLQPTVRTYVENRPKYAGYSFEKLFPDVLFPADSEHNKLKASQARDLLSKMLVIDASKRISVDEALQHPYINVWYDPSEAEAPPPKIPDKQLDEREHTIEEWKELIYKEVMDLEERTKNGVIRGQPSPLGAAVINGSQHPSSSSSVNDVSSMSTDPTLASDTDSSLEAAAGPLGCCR
Sequence of MKK2 (P36507 whole entry): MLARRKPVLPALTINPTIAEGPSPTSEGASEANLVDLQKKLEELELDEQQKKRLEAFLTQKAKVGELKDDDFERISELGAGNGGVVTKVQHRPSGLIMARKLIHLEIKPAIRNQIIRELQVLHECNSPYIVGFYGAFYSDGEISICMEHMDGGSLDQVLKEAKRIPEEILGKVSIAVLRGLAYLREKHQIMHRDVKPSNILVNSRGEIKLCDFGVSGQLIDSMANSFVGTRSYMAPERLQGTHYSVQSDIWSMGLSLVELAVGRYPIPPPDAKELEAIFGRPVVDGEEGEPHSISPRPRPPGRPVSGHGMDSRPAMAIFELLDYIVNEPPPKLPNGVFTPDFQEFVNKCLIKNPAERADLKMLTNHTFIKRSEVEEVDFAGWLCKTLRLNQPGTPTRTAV
Sequence of MAPKAP-K2 (P49137 whole entry): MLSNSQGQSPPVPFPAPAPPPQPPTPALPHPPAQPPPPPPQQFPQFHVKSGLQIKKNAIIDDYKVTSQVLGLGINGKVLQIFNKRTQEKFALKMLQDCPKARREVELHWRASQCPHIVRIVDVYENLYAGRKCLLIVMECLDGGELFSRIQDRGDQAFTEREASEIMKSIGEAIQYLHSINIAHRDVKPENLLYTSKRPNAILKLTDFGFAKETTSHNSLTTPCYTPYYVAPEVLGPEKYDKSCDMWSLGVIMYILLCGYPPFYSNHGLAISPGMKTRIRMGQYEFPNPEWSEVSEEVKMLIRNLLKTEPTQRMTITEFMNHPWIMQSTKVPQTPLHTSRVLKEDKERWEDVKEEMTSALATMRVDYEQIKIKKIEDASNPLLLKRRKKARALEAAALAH
Sequence of HIPK2 (Q9H2X6 whole entry): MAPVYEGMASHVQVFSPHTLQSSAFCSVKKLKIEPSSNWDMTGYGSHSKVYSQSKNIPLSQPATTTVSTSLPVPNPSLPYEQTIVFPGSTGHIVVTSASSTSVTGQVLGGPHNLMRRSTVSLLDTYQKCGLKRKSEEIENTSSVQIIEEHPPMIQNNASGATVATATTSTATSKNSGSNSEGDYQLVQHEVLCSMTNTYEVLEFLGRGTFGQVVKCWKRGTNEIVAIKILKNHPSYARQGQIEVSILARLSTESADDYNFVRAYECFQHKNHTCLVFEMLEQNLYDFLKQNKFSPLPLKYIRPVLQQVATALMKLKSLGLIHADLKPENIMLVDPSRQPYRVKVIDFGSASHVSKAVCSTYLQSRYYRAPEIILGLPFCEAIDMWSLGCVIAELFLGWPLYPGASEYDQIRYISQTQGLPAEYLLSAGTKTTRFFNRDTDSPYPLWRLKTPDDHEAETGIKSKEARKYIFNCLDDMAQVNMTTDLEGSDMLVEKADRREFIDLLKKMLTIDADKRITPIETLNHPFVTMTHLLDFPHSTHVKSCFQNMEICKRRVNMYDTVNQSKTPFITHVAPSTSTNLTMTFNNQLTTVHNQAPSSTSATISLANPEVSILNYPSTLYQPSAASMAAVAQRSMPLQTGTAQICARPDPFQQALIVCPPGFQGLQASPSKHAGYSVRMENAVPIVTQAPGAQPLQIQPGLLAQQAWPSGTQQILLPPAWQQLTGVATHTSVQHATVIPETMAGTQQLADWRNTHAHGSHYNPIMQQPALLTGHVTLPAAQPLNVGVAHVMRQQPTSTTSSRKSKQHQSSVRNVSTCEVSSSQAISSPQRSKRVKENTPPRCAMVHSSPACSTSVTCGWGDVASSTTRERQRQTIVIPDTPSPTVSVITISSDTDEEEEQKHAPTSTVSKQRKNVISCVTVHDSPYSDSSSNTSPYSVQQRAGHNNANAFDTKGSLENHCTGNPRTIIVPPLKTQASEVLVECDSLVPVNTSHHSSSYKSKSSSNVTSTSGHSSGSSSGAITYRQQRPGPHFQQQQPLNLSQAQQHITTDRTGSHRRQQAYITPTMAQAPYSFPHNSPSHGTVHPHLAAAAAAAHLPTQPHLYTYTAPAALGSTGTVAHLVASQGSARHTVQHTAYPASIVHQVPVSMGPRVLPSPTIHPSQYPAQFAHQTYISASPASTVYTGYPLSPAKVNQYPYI

For the molecule `Cc1nc2ccc3sc(NC(=O)c4ccc5ncsc5c4)nc3c2s1` [3A5, N-(2-methyl[1,3]thiazolo[5,4-e][1,3]benzothiazol-7-yl)-1,3-benzothiazole-6-carboxamide], the inhibition at 10 µM in [1] stood at 68%. In addition, the “% inhibition of luciferase” value in the test with firefly luciferase is 6.7 ± 2.8%. For the same molecule, the “ERK8 activity in kinase profiling” value on ERK8 is 82. In addition, the “HIPK2 activity in kinase profiling” value on HIPK2 amounted to 96. In addition, the “IR activity in kinase profiling” value on IR was 127. The “JNK1 activity in kinase profiling” value at JNK1 is reported as 67. Moreover, the “MAPKAP-K2 activity in kinase profiling” value at MAPKAP-K2 stood at 107. The “MKK2 activity in kinase profiling” value at MKK2 is on record as 115. The “PDGFRA activity in kinase profiling” value at PDGFRA worked out at 91. Further, the “PIM3 activity in kinase profiling” value on PIM3 is 88. The “PKD1 activity in kinase profiling” value at PKD1 amounted to 96. Besides, the “TIE2 activity in kinase profiling” value at TIE2 was 98. Further, on Dyrk1A, the “DYRK1A activity in kinase profiling” value worked out at 16 and the inhibition at 1 µM came out at 84%. Besides, the “AMPK (hum) activity in kinase profiling” value in the test with AMPK (hum) worked out at 68. Also, the “PHK activity in kinase profiling” value in the test on PHK was found to be 104.
In the case of `CSc1nc2ccc3nc(NC(=O)c4ccco4)sc3c2s1` [5E4, N-[7-(methylsulfanyl)[1,3]thiazolo[4,5-g][1,3]benzothiazol-2-yl]-2-furamide], in test [1], the inhibition at 10 µM was 57%. Further, in the test on firefly luciferase, the “% inhibition of luciferase” value is 29.7 ± 2.9%. In addition, the “ERK8 activity in kinase profiling” value on ERK8 came out at 83. Besides, at HIPK2, the “HIPK2 activity in kinase profiling” value was found to be 19. For the same molecule, the “IR activity in kinase profiling” value on IR was 116. Besides, on JNK1, the “JNK1 activity in kinase profiling” value is listed as 91. Further, the “MAPKAP-K2 activity in kinase profiling” value on MAPKAP-K2 came to 92. Also, the “MKK2 activity in kinase profiling” value on MKK2 is reported as 121. For the same molecule, the “PDGFRA activity in kinase profiling” value on PDGFRA came to 86. In addition, on PIM3, the “PIM3 activity in kinase profiling” value worked out at 95. The “PKD1 activity in kinase profiling” value at PKD1 is on record as 98. Moreover, the “TIE2 activity in kinase profiling” value on TIE2 came out at 89. Further, at Dyrk1A, the “DYRK1A activity in kinase profiling” value came to 3 and the inhibition at 1 µM was 97%. For the same molecule, the “AMPK (hum) activity in kinase profiling” value in the test on AMPK (hum) was 84. The “PHK activity in kinase profiling” value in the test on PHK is 110. The “decrease of inhibition against CLK2 compared to 3A5” value on CLK2 is on record as 2–3 fold.
